ChEMBL document CHEMBL1156829 (Proc Natl Acad Sci U S A, 2008)
pEC50: −log10 of the molar value. Several values for one entry are separate records, joined by “and”; a condition that tells them apart may be missing. Equal values may be shown once. Where a name gives a salt, the structure may show the parent alone. Numbered stars: 1 amine (or outer) side, 2 acyl side, 3 side chain; on linkers, the order of the positions; unused ones are H or OH. Bridge positions count the residues as written; N and C are the ends. Square brackets hold non-standard residues; d marks the D form. Peptide text beside a SMILES is read from it. I, II: the chains in the order shown. Actinocin(1to9) = Cc1c2oc3c(C)ccc(C(=O)[*:2])c3nc-2c(C(=O)[*:1])c(N)c1=O; NMeV = CN[C@H](C(=O)O)C(C)C; Sar = CNCC(=O)O

Key:
Huh-7 = experiment: (§1) NOVARTIS: Cytotoxicity against human hepatocellular carcinoma cell line (Huh7); format: toxicity, cell-based
Plasmodium falciparum [1] = experiment: NOVARTIS: Inhibition of Plasmodium falciparum 3D7 (drug-susceptible) proliferation in erythrocyte-based infection assay; format: functional, organism-based
Plasmodium falciparum [2] = experiment: NOVARTIS: Inhibition of Plasmodium falciparum W2 (drug-resistant) proliferation in erythrocyte-based infection assay; format: functional, organism-based; conditions: read-out: EC50
[3] = as §1; format: toxicity, cell-based, Huh-7; conditions: Huh7 cells (hepatocellular carcinoma cell line)

| SMILES | CC50 (Huh-7; huh-7, read-out: CC50) | pEC50 (Plasmodium falciparum [1]) | pEC50 (Plasmodium falciparum [2]) | pEC50 (Plasmodium falciparum [1]; Plasmodium falciparum, 3D7) | pEC50 (Plasmodium falciparum [2]; Plasmodium falciparum, W2) | CC50 (Huh-7; huh-7) | CC50 [3] [nM] |
| --- | --- | --- | --- | --- | --- | --- | --- |
| Cc1[nH]c2ccccc2c1/C=C/c1cc[n+](C)cc1 [listing 1 of 2 here] | > 100000 nM | 6.76 | 6.67 | – | – | – | – |
| CC[n+]1c(C=CN(C)c2ccccc2)sc2ccc(OC)cc21.[O-][Cl+3]([O-])([O-])[O-] | > 100000 nM | – | – | 6.84 | 6.59 | – | – |
| CN(C)c1ccc(C=CC=Cc2cccc[n+]2C)cc1.[O-][Cl+3]([O-])([O-])[O-] | > 100000 nM | – | – | 6.55 | 6.75 | – | – |
| CC[n+]1c(/C=C/c2ccc(N(C)C)cc2)sc2cc(NC(C)=O)ccc21 | > 100000 nM | 5.82 | 6.16 and 6.47 | 6.02 | – | – | – |
| CN(C)c1ccc(C=CC=Cc2cc[n+](C)cc2)cc1.[O-][Cl+3]([O-])([O-])[O-] | > 100000 nM | – | – | 6.11 | 6.27 | – | – |
| Cc1cc(=O)n(-c2nc(-c3ccccc3O)nc3ccccc23)[nH]1 | – | – | – | 6.08 | 6.12 | No fit | – |
| CCN1/C(=C/c2sc3ccccc3[n+]2CC)Sc2ccccc21 | 11100 nM | 6.73 | 7.97 | – | – | – | – |
| CN(C)c1ccc(C=CC=Cc2cc[n+](C)cc2)cc1 | > 10000 nM | – | – | 6.19 | 6.30 | – | – |
| C[n+]1c(C=CNc2ccccc2)n(-c2ccccc2)c2ccc(Cl)cc21 | > 10000 nM | 6.74 | > 7.84 | – | – | – | – |
| OC(CN1CCN(C/C=C/c2ccccc2)CC1)Cn1c2ccc(Cl)cc2c2cc(Cl)ccc21 (configuration not stated) | – | – | – | 6.18 | 6.79 | No fit | – |
| CCN1C(=Cc2sc3ccc(O)cc3[n+]2CC)C=Cc2cc(C)ccc21 | > 10000 nM | 6.73 and 6.42 | 6.42 | – | 6.54 | – | 5790 |
| Cc1nn(CC(O)Cn2c3ccc(Cl)cc3c3cc(Cl)ccc32)c(C)c1Br (configuration not stated) | – | – | – | 6.22 | 6.72 | No fit | – |
| COc1ccc(/C=C2/SC(=Nc3ccccc3)NC2=O)c(OC)c1 | > 100000 nM | 6.18 | 6.60 | 6.27 | 6.37 | – | – |
| CC[n+]1c(C=CN(C)c2ccccc2)sc2ccc(OC)cc21 | > 10000 nM | – | – | 6.04 | 6.40 | – | – |
| C[n+]1ccccc1C=Cc1cc(Br)ccc1O [listing 1 of 2 here] | > 10000 nM | – | – | 6.52 | 6.36 | – | – |
| COC(=O)C1=CN(Cc2ccc(OC)cc2)C=C(C(=O)OC)C1c1cccc([N+](=O)[O-])c1 | – | – | – | 5.67 | < 5.90 | No fit | – |
| COc1ccc(C=C2SC(Nc3ccc(F)cc3)=NC2=O)c(OC)c1 | 12000 nM | 6.56 | 6.27 | 6.58 | 6.12 | – | 12200 |
| CCCCN1C(=Cc2cccc[n+]2C)Sc2cc(NC(C)=O)ccc21 | > 10000 nM | – | < 5.90 | < 5.95 | – | – | – |
| Cc1cc(/C=C2\Sc3ccccc3N2C)[n+](C)c2ccccc12 | 11500 nM | 7.04 and 7.41 | 7.10 | – | 7.03 | – | 6370 |
| C=CC[n+]1c(C=C2C=CC=CN2C)sc2ccccc21 | > 10000 nM | – | < 6.00 | 6.31 | – | – | – |
| CCN1/C(=C/C=C/c2oc3ccc(-c4ccccc4)cc3[n+]2CC)Oc2ccc(-c3ccccc3)cc21 | 10700 nM | – | < 6.24 | < 5.76 | 5.97 | – | > 10000 |

| SMILES | CC50 (Huh-7; huh-7, read-out: CC50) | pEC50 (Plasmodium falciparum [1]) | pEC50 (Plasmodium falciparum [2]) | pEC50 (Plasmodium falciparum [1]; Plasmodium falciparum, 3D7) | pEC50 (Plasmodium falciparum [2]; Plasmodium falciparum, W2) | CC50 (Huh-7; huh-7) | CC50 [3] [nM] |
| --- | --- | --- | --- | --- | --- | --- | --- |
| CC[n+]1c(C=CN(C)C)sc2ccccc21 | 27100 nM | – | 5.87 | 6.34 | – | – | – |
| CN(C)c1ccc(C=CC=Cc2cccc[n+]2C)cc1 | > 10000 nM | – | – | 6.97 | > 8.07 | – | – |
| CCN(CC)c1ccc(C=Cc2cc[n+](Cc3ccc(F)cc3)cc2)cc1 | > 10000 nM | 6.38 | 6.24 | 6.62 | 6.11 | – | 5290 |
| CCN1/C(=C/c2ccc3ccccc3[n+]2CC)Sc2c1ccc1ccccc21 | 7140 nM | 6.65 and 6.20 and 6.48 | 6.17 and < 6.21 and 6.67 | – | – | – | > 10000 |
| CC[n+]1c(/C=C/N2CCCc3ccccc32)ccc2ccccc21 | 2340 nM | – | – | 7.12 | 6.84 | – | – |
| Cc1[nH]c2ccccc2c1/C=C/c1cc[n+](C)cc1 [listing 2 of 2 here] | > 10000 nM | – | – | 6.59 | 6.94 | – | – |
| CCN1/C(=C/c2ccc3cc(OC)ccc3[n+]2CC)Sc2cc(C)ccc21 | 11700 nM | 7.04 | 6.56 and 7.06 | 6.79 | – | – | 19200 |
| CCn1c(C=CN(C(C)=O)c2ccccc2)[n+](CC)c2cc(Cl)ccc21 | > 10000 nM | – | – | < 5.78 | < 5.97 | – | – |
| O=C(NCCc1ccccc1)C1CCC(Cn2c(=S)[nH]c3ccccc3c2=O)CC1 (configuration not stated) | – | – | – | < 5.78 | 5.76 | No fit | – |
| CN1/C(=C/c2cccc[n+]2C)Sc2ccccc21 | > 100000 nM | 6.64 | 6.53 | 6.86 | 6.65 | – | – |
| CC[n+]1c(C=CC=C2N(C)c3ccccc3C2(C)C)sc2ccccc21 | > 10000 nM | – | – | 6.20 | 6.28 | – | – |
| C[n+]1c2ccccc2nc2ccc(NCCc3cnc[nH]3)cc21 | – | – | – | 6.86 | 6.39 | No fit | – |
| CCN(CC)c1ccc(C=Cc2cccc[n+]2CC)cc1 | 44900 nM | 7.05 | 6.88 | – | – | – | – |
| COc1ccc(/C=C2\SC(=O)NC2=Nc2ccccc2)cc1 | > 100000 nM | – | 5.89 and 6.42 | 6.09 | – | – | – |
| CCN1/C(=C/c2cccc[n+]2C)Sc2ccc(OC)cc21 | > 100000 nM | – | < 6.06 and 6.52 | 6.68 | – | – | – |
| C[n+]1ccccc1C=Cc1cc(Br)ccc1O [listing 2 of 2 here] | > 100000 nM | 6.33 | 6.51 | – | – | – | – |
| CC[n+]1c(C=CC=C2N(C)c3ccccc3C2(C)C)sc2ccccc21.[O-][Cl+3]([O-])([O-])[O-] | 1630 nM | – | – | 6.83 | 6.75 | – | – |
| CCN1/C(=C/C=C/c2sc3ccccc3[n+]2CC)Sc2ccccc21 [ALAZANINE] | 27000 nM | – | 5.98 | 6.70 | – | – | – |
| Cc1c2oc3c(C)ccc(C(=O)N[C@@H]4C(=O)N[C@H](C(C)C)C(=O)N5CCC[C@H]5C(=O)N(C)CC(=O)N(C)[C@@H](C(C)C)C(=O)O[C@@H]4C)c3nc-2c(C(=O)N[C@@H]2C(=O)N[C@H](C(C)C)C(=O)N3CCC[C@H]3C(=O)N(C)CC(=O)N(C)[C@@H](C(C)C)C(=O)O[C@@H]2C)c(N)c1=O [DACTINOMYCIN] (I: T[dV]P[Sar][NMeV] / II: T[dV]P[Sar][NMeV]; ester I:1-I:C, II:1-II:C; linker I:N-II:N via Actinocin(1to9)) | 4180 nM and > 10000 nM | 6.49 and 6.09 | 6.40 | – | 6.67 | – | – |
| CCOc1ccc2nccc([C@@H](O)[C@@H]3C[C@@H]4CCN3C[C@@H]4CC)c2c1 [ETHYLHYDROCUPREINE HYDROCHLORIDE] | > 10000 nM | 7.41 | > 8.46 | – | – | – | – |
| CCOc1ccc2nccc([C@@H](O)[C@@H]3C[C@@H]4CCN3C[C@@H]4CC)c2c1 [ETHYLHYDROCUPREINE] | 53800 nM | – | 7.59 | 7.50 | – | – | – |
